According to patent US20030119800A1, “Bone anabolic compounds and methods of use” (priority 2001, published 2003):

Key:
MCF-7 cells = assay: MCF-7 cell proliferation assay (3H-thymidine uptake); format: cell-based; settings: 10^−12-10^−7 M for 48 h
Description: (§1) Wet uterine (A) or seminal vesicle weight (B) of female and male mice described in FIG. 11. […] Note the following morphologic differences in the uteri of OVX- and OVX+4-estren-3α,17β-diol-treated mice as compared to uteri from sham-operated and OVX+E2-treated mice: thin and atrophic columnar epithelium; compact stroma; decreased number of glands; decreased nucleus to cytoplasmic ratio in the columnar epithelial, endometrial stroma, and myometrial cells; and absence of mitotic activity. (D) Proliferation of MCF-7 cells was determined by ^3H-thymidine uptake.
MCF-7 cell proliferation assay: MCF-7 cells were serum-starved in the presence of 10^−8 M ICI 182,780 for 96 h, after which the ICI-containing medium was replaced with medium-containing vehicle or 10^−12-10^−7 M of the indicated steroids for an additional 48 h. At that time, proliferation was assayed by measuring ^3H-Thymidine uptake as previously described (Bellido et al, 1997).

[1] = test system: osteoclasts generated in bone marrow cultures from adult female or male mice; assay: Osteoclast apoptosis in bone marrow derived cultures; format: cell-based, mouse
Description: (§2) Osteoblastic cells (A) were isolated from calvaria of neonatal female or male mice, the sex of which was determined by Southern blot analysis of liver DNA with a Y chromosome specific cDNA probe; and cultured as previously described. The ability of the indicated steroids to protect against etoposide induced apoptosis was determined as in FIG. 1D, lower panel. (B) Osteoclasts were generated in bone marrow cultures from adult female or male mice, and then treated with vehicle or the indicated concentrations of steroids for 24 hours at which point the number of cells undergoing apoptosis was determined. Representative results from 1 of 4 females and 1 of 4 males examined are shown. Each point represents the mean of triplicate determinations±SD. *p<0.05 vs. vehicle, by ANOVA. (C & D) Eight-month old Swiss Webster mice (n=8-10 per group) were sham-operated, ovariectomized (OVX) or orchidectomized (ORX). […] BMD and wet uterine or seminal vesicle weight was determined six weeks later. Bars indicate means±SD. *p<0.05 vs OVX or ORX.
FIG. 8 illustrates the pro-apoptotic effect of sex steroids on osteoclasts requires Src/ERK signaling. […] After 24 hours, the percentage of apoptotic osteoclasts was determined as in FIG. 7.
(§3) Quantification of apoptotic cells in vitro: Apoptosis of HeLa cells or calvaria-derived osteoblastic cells was quantified by direct visualization of changes in nuclear morphology or by trypan blue staining, respectively, as previously described (Kousteni et al, 2001). Apoptosis of osteoclasts, derived from bone marrow cells cultured with 30 ng/ml M-CSF and 30 ng/ml soluble RANK ligand, was quantified by measuring caspase 3 activity as previously described (Weinstein et al, 2002).

[2] = test system: calvaria-derived murine osteoblastic cells; assay: Etoposide-induced apoptosis of calvaria-derived osteoblastic cells; format: cell-based, mouse
Description: HeLa cells were co-transfected with reporter constructs in which SRE or AP-1 drive the expression of secreted alkaline phosphatase (SEAP), along with the wild type ERα (A and B); or its ligand binding domain (E), or E fused to a membrane (E-Mem) or nuclear (E-Nuc) localization sequence (A). A dominant negaitve (dn) MEK or dn Jnk were also introduced into a subset of the ERα transfected cells. […] In FIGS. 1A and 1B, 100% indicates activity in vehicle treated cells. (C) HeLa cells were co-transfected with the ERα and nEGFP and wild type or dn mutants of the indicated transcription factors. […] (D) HeLa cells (upper panel) were transiently co-transfected with the ERα, a nonphosphorylatable dn mutant of Bad. Calvaria-derived murine osteoblastic cells (lower panel) were pre-treated with the P13K inhibitor wortmannin. Cells were then treated as in (C). […] (E) Proposed model for a kinase-mediated non-genotropic regulation of gene transcription and apoptosis by sex steroids.
as §2, §3

[3] = test system: OVX or ORX Swiss Webster mice; assay: Gonadectomized (OVX or ORX) Swiss Webster mice with 60-day slow release pellets: bone and reproductive tissues; format: in vivo, mouse
Description: as §2
FIG. 9 illustrates the equivalence of the skeletal actions of estrogens and androgens in female and male mice. […] Six weeks later, osteoblast apoptosis in histologic sections of the vertebrae (A), osteoblastogenesis and osteoclastogenesis in ex vivo bone marrow cultures (B and C), and serum osteocalcin concentration (D) were determined. Bars indicate means±SD, *p<0.05 vs OVX or ORX.
Global, spine and hindlimb BMD was determined at both 4 and 6 weeks later in the experiment with the 8 month old females, and at 6 weeks only in the experiments with the 6 month old females and males (A, B and C). The 6 week BMD data in females (B) represent pooled values from the two experiments with the 6- and the 8-month old mice.
Longitudinal undecalcified sections of the distal femur are shown in (B). […] Osteoblast apoptosis in sections of L1-L4 vertebrae from females (8 month old) and males (C).
Histomorphometric analysis of L1-L4 vertebrae from 6 month old females (A-F) and pooled serum osteocalcin levels from the 6 and 8 month old females (G). […] The ANGELS compounds described herein are useful for maintaining and/or increasing bone mass and/or strength and/or density in mammals. Mammals, preferably humans, in need of such compounds can include those suffering from such conditions as female osteoporosis (post menopausal), male osteoporosis, glucocorticoid-induced osteoporosis, immobilization and aging-related osteoporosis, idiopathic or juvenile osteoporosis, transplantation-related osteoporosis, and alveolar ridge bone loss. In addition, the compounds described herein are particularly useful for administration to subjects that are unable or unwilling to tolerate therapies that have a masculinizing or feminizing effect. For example, subjects such as breast cancer patients (especially those with bone metastasis on gonadotropin […] hormone (GnRH) or ovariectomized), prostrate cancer patients (especially those on GnRH/castration therapy), and myeloma/lymphoma patients are frequently poor candidates for treatment with estrogen or androgens because of the risk of a recurrence of the underlying condition, e.g., cancer.
as §1
For these studies, mature Swiss Webster mice (8 month old), n=8-10 per group, were sham-operated or gonadectomized (GNDX). […]

[4] = histomorphometry of lumbar vertebrae L1-L4, OVX females

C[C@]12CC[C@H]3[C@@H](CCC4=C[C@H](O)CC[C@@H]43)[C@@H]1CC[C@@H]2O [4-estren-3α,17β-diol]
MCF-7 cell proliferation (MCF-7 cells): did not stimulate
difference in potency in osteoclasts from females and males [1]: no difference
difference in potency in osteoblasts from one sex versus the other ([2]; cell preparations from females or males): no difference
etoposide-induced apoptosis in primary cultures of osteoblasts ([2]; cells from female or male mice, dose dependent manner): attenuated etoposide-induced apoptosis
body weight ([3]; 7.6 mg per 60 day slow release pellet): no effect
effect on the bone marrow cavity ([3]; 4-estren-3α,17β-diol 7.6 mg pellet, E2 pharmacologic dose 100× the replacement dose): no adverse effects
longitudinal undecalcified sections of the distal femur ([3]; 4-estren-3α,17β-diol at 300× ERT versus vehicle or E2 1× ERT, E2 at 100× ERT): increased cortical and trabecular width
bone compression strength in the vertebrae, male mice ([3]; L5, ORX): equally effective
bone compression strength in the vertebrae, female mice ([3]; L5, compared to mice receiving E2): greater than in mice receiving E2
BMD in ORX mice compared to DHT replacement ([3]; ORX males, 7.6 mg pellet): at least as effective if not superior
BMD values in the spine versus the untreated ORX group ([3]; ORX males, 6 weeks): significantly higher
seminal vesicle weight ([3]; ORX males, pellets E2 0.025 mg or 4-estren-3α,17β-diol 7.6 mg): no effect
histologic analysis of the uterus ([3]; OVX females): lack of an effect
wet uterine weight ([3]; OVX females, pellets DHT 10 mg or 4-estren-3α,17β-diol 7.6 mg): no effect
BMD change in the hindlimb ([3]; OVX mice, compared to OVX+E2 replacement and to estrogen replete sham controls): greater BMD change
global and spinal BMD in females ([3]; OVX, 7.6 mg pellet versus E2 replacement): as effective, if not superior to estradiol
osteoclast number ([3]; as compared to the OVX group): suppressed
rate of bone formation ([3]; as compared to the OVX group): suppressed
prevalence of osteoblast and osteocyte apoptosis in the lumbar vertebrae ([3]; gonadectomized females or males): prevented the increased prevalence
cortical width, greater compared to OVX mice treated with E2 [3, 4]: 27.8%
number of osteoblasts on the trabeculae, greater than in the E2-treated group [3, 4]: 319%
osteoid perimeter, increase versus E2-treated group [3, 4]: 270%
trabecular width, greater compared to OVX mice treated with E2 [3, 4]: 33.9%
serum osteocalcin ([3]; two separate experiments, compared to OVX+E2 and to estrogen replete sham controls): significantly higher
